The values below come from US20120100204A1, “TGF-Beta Stimulating Agent Compositions and Combinations” (TCP INNOVATIONS LTD, priority 2007, published 2012).

One data set relates to tgfb2 mRNA. Briefly: tgfb2 mRNA level by quantitative PCR in human aortic vascular smooth muscle cells. In kind it is cell-based. Particulars: 24 hrs. As to the method: (1995) Cardiovasc. Res. 29:848-55). […] The cells were then incubated for either 24 hrs or 72 hrs depending on the experiment. All treatment conditions were established in triplicate. The level of mRNA for tgfb1, tgfb2 and tgfb3 were estimated by quantitative PCR. The media was removed and RNA was carefully prepared using the Ambion RNAqueous4PCR kit (Ambion#1914) in accordance with the manufacturer's instructions. The purity of the RNA and the quantity was assessed spectrophotometrically. […] This analysis results in both a gel-like image as well as electrophoretic data. Indications of RNA degradation are: (a) decreasing ratio of ribosomal bands (b) additional peaks bellow the ribosomal bands (c) Decrease in overall RNA signal (d) shift towards shorter fragments. […] Next, the RNA was converted to cDNA using the ABI High-Capacity cDNA Archive Kit, in accordance with manufacturer's instructions. […] Samples were vortexed to ensure thorough mixing. cDNA was aliquoted into ABI 384 well plates using a multi-channel pipette, 4.5 μl of sample into each well. Samples were assayed in triplicate (that is, nine determinations in total were made for each condition, being three separate assays on each of three replicate culture wells). The assay mix and Universal Master Mix were prepared and aliquoted across the 384 well plates 5.5 μl in each well, using a single channel pipette. […] Universal Master Mix=5 μl; cDNA=4.5 μl. […] Quantitative PCR was performed using several primer/probe sets. […] In all quantitative PCR experiments, several additional controls were included: firstly, a control for each sample is run with no reverse transcription to ensure the mRNA sample is not contaminated with genomic DNA (although the manual design probe/primer sets were all selected to cross an exon/exon boundary, ensuring no detectable amplicon is produced from genomic DNA templates). […]

Data set [1] deals with human aortic vascular smooth muscle cells. Briefly: toxicity to cultured smooth muscle cells. It counts as cell-based. As to the method:
The cells were cultured (37° C.; 5% CO2) in DMEM+20% foetal calf serum (FCS), and subcultured every 5 days at 1:2 dilution, using 0.02% trypsin/EDTA (Gibco).
For the experiments, the cells were subcultured into 12-well cluster plates at 1×10^5 cells/cm^2, and allowed to grow for 24 hrs. […] The cells were then incubated for either 24 hrs or 72 hrs depending on the experiment. All treatment conditions were established in triplicate.

Each structure is given as a SMILES string.

With `CC(=O)Oc1ccccc1C(=O)O` [Aspirin, acetylsalicylic acid], the “Level of mRNA, estimated by qPCR: tgfb2” value in the data set on tgfb2 mRNA (10 μM A) is given as 0.92 ± 0.10 fold-change; with tgfb2 mRNA (33 μM A), 1.00 ± 0.17 fold-change; in the data set with tgfb2 mRNA (100 μM A), 1.03 ± 0.16 fold-change.

Turning to `CC/C(=C(\c1ccccc1)c1ccc(OCCN(C)C)cc1)c1ccccc1` [Tamoxifen], the “concentrations toxic to the cells” value in data set [1] (after 24 hrs) is listed as “above 33 μM”. For the same compound, the “doses toxic to the cells” value in data set [1] (after 72 hrs) is “above 10 μM”.
